“And” between values parts separate entries of the source, which are not always exact repeats. Equal entries are not always repeated.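 1) Cells in 96-well plates. 2) Compound, 48 h, 5 concentrations. 3) Linear interpolation between surrounding doses. 4) Unreached endpoint = highest concentration. GI50 marks 50% less growth. TGI: concentration producing complete growth inhibition.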
Columns and labels:
Assay in all cases: DTP human tumour cell line panel, 48 h
UACC-257 melanoma = tested on: UACC-257 melanoma
OVCAR-8 ovarian = tested on: OVCAR-8 ovarian
NCI-H23 lung = tested on: NCI-H23 lung
NCI/ADR-RES ovarian = tested on: NCI/ADR-RES ovarian
EKVX NSCLC = tested on: EKVX NSCLC
CCRF-CEM leukemia = tested on: CCRF-CEM leukemia
MCF7 breast = tested on: MCF7 breast
HCT-15 colon = tested on: HCT-15 colon
SK-MEL-2 melanoma = tested on: SK-MEL-2 melanoma
SK-OV-3 ovarian = tested on: SK-OV-3 ovarian
HS 578T breast = tested on: HS 578T breast

CC(=O)NC(CCC(=O)C=[N+]=N)C(=O)O (centres undefined)
TGI (UACC-257 melanoma): > 100 µM | TGI (OVCAR-8 ovarian): > 100 µM | TGI (NCI-H23 lung): > 100 µM | TGI (NCI/ADR-RES ovarian): > 100 µM | TGI (EKVX NSCLC): > 100 µM | TGI (CCRF-CEM leukemia): > 100 µM | TGI (MCF7 breast): > 100 µM | TGI (HCT-15 colon): > 100 µM | TGI (SK-MEL-2 melanoma): > 100 µM | TGI (SK-OV-3 ovarian): > 100 µM | TGI (HS 578T breast): > 100 µM

CC1CCC2(C(=O)O)CCC3(C)C(=CCC4C5(C)CCC(O)C(C)(C)C5CCC43C)C2C1C (centres undefined)
GI50 (UACC-257 melanoma): 4.8 µM and 12.1 µM | TGI (UACC-257 melanoma): 13.7 µM and 32.6 µM | TGI (OVCAR-8 ovarian): 21 µM and 35.2 µM | TGI (NCI-H23 lung): 24.4 µM and 34.3 µM | TGI (NCI/ADR-RES ovarian): 23.7 µM and 40.7 µM | TGI (EKVX NSCLC): 23.2 µM and 28.6 µM | GI50 (CCRF-CEM leukemia): 3.59 µM and 16.6 µM | TGI (CCRF-CEM leukemia): 27.9 µM and > 100 µM | TGI (MCF7 breast): 25.6 µM and 43.7 µM | GI50 (HCT-15 colon): 5.53 µM and 13.3 µM | TGI (HCT-15 colon): 15.4 µM and 26.6 µM | TGI (SK-MEL-2 melanoma): 19 µM and 30.2 µM | TGI (SK-OV-3 ovarian): 27 µM and 35.1 µM | TGI (HS 578T breast): 25.2 µM

CC1CC[C@@]2(OC1)OC1CC3C4CCC5C[C@@H](OC6OC(CO)C(OC7OC(CO)C(O)C(OC8OC(CO)C(O)C(OC9OC(CO)C(O)C(O)C9O)C8O)C7OC7OC(CO)C(O)C(O)C7O)C(O)C6O)[C@H](O)C[C@]5(C)C4CC[C@]3(C)C1[C@@H]2C (some centres undefined)
TGI (UACC-257 melanoma): > 80.5 µM | TGI (OVCAR-8 ovarian): > 80.5 µM | TGI (NCI-H23 lung): > 80.5 µM | TGI (NCI/ADR-RES ovarian): > 80.5 µM | TGI (EKVX NSCLC): > 80.5 µM | TGI (CCRF-CEM leukemia): > 80.5 µM | TGI (MCF7 breast): > 80.5 µM | TGI (HCT-15 colon): > 80.5 µM | TGI (SK-OV-3 ovarian): > 80.5 µM | TGI (HS 578T breast): > 80.5 µM

CNC(=O)SCC(N)C(=O)O (centres undefined)
TGI (UACC-257 melanoma): > 100 µM | TGI (OVCAR-8 ovarian): > 100 µM | TGI (NCI-H23 lung): > 100 µM | TGI (NCI/ADR-RES ovarian): > 100 µM | TGI (EKVX NSCLC): > 100 µM | TGI (CCRF-CEM leukemia): > 100 µM | TGI (MCF7 breast): > 100 µM | TGI (HCT-15 colon): > 100 µM | TGI (SK-MEL-2 melanoma): > 100 µM | TGI (SK-OV-3 ovarian): > 100 µM

Cc1[nH]nc(N)c1C(N)=O
TGI (UACC-257 melanoma): > 100 µM | TGI (OVCAR-8 ovarian): > 100 µM | TGI (NCI-H23 lung): > 100 µM | TGI (EKVX NSCLC): > 100 µM | TGI (CCRF-CEM leukemia): > 100 µM | TGI (HCT-15 colon): > 100 µM | TGI (SK-MEL-2 melanoma): > 100 µM | TGI (SK-OV-3 ovarian): > 100 µM

CC(=O)OC/C=C\Cn1nc(Br)c(=O)[nH]c1=O
TGI (UACC-257 melanoma): 31.8 µM | TGI (OVCAR-8 ovarian): 34.7 µM | TGI (NCI-H23 lung): 32.5 µM | TGI (NCI/ADR-RES ovarian): 56 µM | TGI (EKVX NSCLC): 34.5 µM | TGI (CCRF-CEM leukemia): 24.5 µM | TGI (MCF7 breast): 28.5 µM | TGI (HCT-15 colon): 27.2 µM | TGI (SK-MEL-2 melanoma): 30.6 µM | TGI (HS 578T breast): 54 µM

COc1cc(OC)c(/C=C\c2cc(/C=C/c3c(OC)cc(OC)cc3OC)c3ccccc3[n+]2C)c(OC)c1
TGI (UACC-257 melanoma): 12.4 µM | TGI (OVCAR-8 ovarian): 5.34 µM | TGI (NCI-H23 lung): 9.25 µM | TGI (NCI/ADR-RES ovarian): > 100 µM | TGI (EKVX NSCLC): 11.4 µM | TGI (MCF7 breast): > 39.8 µM | TGI (HCT-15 colon): > 47.4 µM | TGI (SK-OV-3 ovarian): > 48 µM | TGI (HS 578T breast): 97.9 µM

O=C(N/N=C/c1cc(Cl)cc(Cl)c1[O-])c1ccccc1O.O=C(N/N=C/c1cc(Cl)cc(Cl)c1[O-])c1ccccc1O.[Zn+2]
TGI (UACC-257 melanoma): 11.8 µM | TGI (OVCAR-8 ovarian): 3.38 µM | GI50 (NCI-H23 lung): 0.56 µM | TGI (NCI-H23 lung): 11.2 µM | GI50 (EKVX NSCLC): 0.68 µM | TGI (EKVX NSCLC): 9.88 µM | TGI (HCT-15 colon): 15.6 µM | GI50 (SK-MEL-2 melanoma): 0.591 µM | TGI (SK-MEL-2 melanoma): 11.5 µM | TGI (SK-OV-3 ovarian): 11.8 µM

OC1CCOc2ccccc21 (centres undefined)
TGI (OVCAR-8 ovarian): > 100 µM | TGI (NCI-H23 lung): > 100 µM | TGI (EKVX NSCLC): > 100 µM | TGI (CCRF-CEM leukemia): > 100 µM | TGI (HCT-15 colon): > 100 µM | TGI (SK-MEL-2 melanoma): > 100 µM | TGI (SK-OV-3 ovarian): > 100 µM

CCC(=O)c1ccc2[nH]c3c(C)c4c(=O)cc(C)[nH]c4c(C)c3c2c1
TGI (UACC-257 melanoma): > 100 µM | TGI (OVCAR-8 ovarian): > 100 µM | TGI (NCI-H23 lung): > 100 µM | TGI (NCI/ADR-RES ovarian): > 100 µM | TGI (EKVX NSCLC): > 100 µM | TGI (CCRF-CEM leukemia): > 100 µM | TGI (MCF7 breast): > 100 µM | TGI (HCT-15 colon): > 100 µM | TGI (SK-MEL-2 melanoma): > 100 µM | TGI (HS 578T breast): > 100 µM

Source: PubChem BioAssay (NCI)
